In data set [1] the test system is Staphylococcus aureus. As to the kind of experiment: Antibacterial activity against Staphylococcus aureus ATCC 29213 by CLSI broth microdilution method. The class given is functional. In general terms: In broth dilution the organism is exposed to a series of concentrations in liquid medium.
The subject of data set [2] is Staphylococcus aureus. As to the kind of experiment: Antibacterial activity against methicillin-resistant and […] Staphylococcus aureus ATCC 700699 by CLSI broth microdilution method. The note with it: Mu50 ATCC 700699. The class given is functional.
The test system of a further data set is Bacillus subtilis. Description: Antibacterial activity against Bacillus subtilis ATCC 169 by CLSI broth microdilution method. The class given is functional.
Data set [3] concerns Saccharomyces cerevisiae. Description: Antifungal activity against Saccharomyces cerevisiae incubated for overnight by disc diffusion method. The class given is functional, organism-based.
Data set [4] relates to Mycobacterium tuberculosis. Description: Antibacterial activity against Mycobacterium tuberculosis H37Rv by CLSI broth microdilution method. The class given is functional, organism-based.
Data set [5] has as its system Enterococcus faecalis. As to the kind of experiment: Antibacterial activity against Enterococcus faecalis ATCC 29212 by CLSI broth microdilution method. The class given is functional, organism-based.
Data set [6] concerns Enterococcus faecalis. As to the kind of experiment: Antibacterial activity against Enterococcus faecalis ATCC 51299 by CLSI broth microdilution method. The class given is functional, organism-based.
Data set [7] deals with Enterococcus faecium. As to the kind of experiment: Antibacterial activity against Enterococcus faecium ATCC 35667 by CLSI broth microdilution method. The class given is functional, organism-based.
Data set [8] concerns Candida albicans. As to the kind of experiment: Antifungal activity against hyphae form of Candida albicans ATCC 24433 incubated for overnight by disc diffusion method. The class given is functional, organism-based. (Agar diffusion results depend on both activity and mobility in agar.)
Data set [9] has as its system Enterococcus faecium. As to the kind of experiment: Antibacterial activity against Enterococcus faecium ATCC 700221 by CLSI broth microdilution method. The class given is functional, organism-based.
In another data set the test system is Escherichia coli. Description: Antibacterial activity against Escherichia coli ATCC 25922 by CLSI broth microdilution method. The class given is functional, organism-based.
Data set [10] concerns Candida albicans. As to the kind of experiment: Fungicidal activity against hyphae form of Candida albicans ATCC 24433 assessed as reduction in bacterial viability at 474 uM measured after 6 hrs by time kill assay. The class given is functional, organism-based.
In data set [11] the test system is Candida albicans. As to the kind of experiment: Antifungal activity against hyphae form of Candida albicans ATCC 24433 assessed as diameter of zone inhibition at 1 mM incubated for overnight by disc diffusion method. The class given is functional. To be noted: read-out: DIZ.
Data set [12] deals with Saccharomyces cerevisiae. Description: Antifungal activity against Saccharomyces cerevisiae assessed as diameter of zone inhibition incubated for overnight by disc diffusion method. The class given is functional.
For data set [13], the system named is Candida albicans. As to the kind of experiment: Antifungal activity against hyphae form of Candida albicans ATCC 24433 assessed inhibition of visible microbe growth incubated for overnight by CLSI microbroth dilution method. The class given is functional.
Another data set relates to THP-1. As to the kind of experiment: Cytotoxicity against human THP1 cells assessed as reduction in cell viability up to 100 uM measured after 48 hrs by resazurin based fluorescence assay. The note with it: thp-1, 48 h.
Data set [14] is described as follows: Cytotoxicity against human CLS54 cells assessed as reduction in cell viability up to 100 uM measured after 48 hrs by resazurin based fluorescence assay.
The test system of the next data set is Huh-7. As to the kind of experiment: Cytotoxicity against human HuH7 cells assessed as reduction in cell viability up to 100 uM measured after 48 hrs by resazurin based fluorescence assay. The note with it: huh-7, 48 h. In general terms: Alamar Blue is a resazurin reagent that responds to reducing activity.
Data set [15] concerns Candida albicans. Description: Fungicidal activity against hyphae form of Candida albicans ATCC 24433 assessed as log reduction in bacterial viability at 400 uM measured after 6 hrs by time kill assay. The class given is functional.

Values after ≈ are worked out from the molar mass of the structure shown. Active and inactive are the calls of the source. No cut-off for these calls is given here.

`Cc1c(CCCC(O)CO)cc(O)c(C=O)c1O` (stereo unspecified): the outcome (with Staphylococcus aureus [1]; in the data set with Staphylococcus aureus [2]; in the data set on Bacillus subtilis; with Saccharomyces cerevisiae [3]; in [4]; with Enterococcus faecalis [5]) was inactive. In addition, the result in the data set on Enterococcus faecalis [6], in the data set with Enterococcus faecium [7], in the data set with Candida albicans [8], in the data set on Enterococcus faecium [9] and in the data set with Escherichia coli was inactive.
Turning to `CN[C@H]1C[C@@H](N)[C@H](O)[C@@H](O[C@@H]2O[C@H](CO)[C@H](O)[C@@H]3O[C@@]4(O[C@H]23)O[C@H]([C@H](N)CO)[C@H](O)[C@H](O)[C@H]4O)[C@@H]1O`, in the data set on Candida albicans [10], the result was Active.
The MIC is the lowest concentration found to suppress growth. A higher MIC goes with a need for much substance. `CCCCCc1cc(O)c(C=O)c(O)c1C`: the MIC against Staphylococcus aureus [1] stood at 50 µM (≈ 11.1 µg/mL); against Staphylococcus aureus [2] it was 50 µM (≈ 11.1 µg/mL); in the data set on Bacillus subtilis, 25 µM (≈ 5.56 µg/mL); against Candida albicans [13] it was 100 µM (≈ 22.2 µg/mL). Further, the zone of inhibition at 1000 µM in the data set with Candida albicans [11] amounted to 8 mm. In the data set with Saccharomyces cerevisiae [12], the “diameter of the inhibition zone (DIZ)” value amounted to 18 mm. The Activity entry (in the data set with THP-1; in [14]; in the data set with Huh-7) was “Non-Toxic” in each case. In addition, the “log(activity)” value with Candida albicans [15] was 3.5. In addition, the result (in data set [4]; with Enterococcus faecalis [5]; with Enterococcus faecalis [6]; in the data set with Enterococcus faecium [7]; with Enterococcus faecium [9]; in the data set with Escherichia coli) was inactive.
Take `Cc1c(CCC(=O)O)cc(O)c(C=O)c1O`: the results for the MIC in the data set with Staphylococcus aureus [1] and against Staphylococcus aureus [2] were 25 µM (≈ 5.61 µg/mL) and 50 µM (≈ 11.2 µg/mL), respectively. Besides, the result (in the data set with Bacillus subtilis; with Saccharomyces cerevisiae [3]; in [4]; in the data set on Enterococcus faecalis [5]; in the data set on Enterococcus faecalis [6]; in the data set with Enterococcus faecium [7]) was inactive. The outcome in the data set with Candida albicans [8], in the data set on Enterococcus faecium [9] and in the data set on Escherichia coli was inactive.
Consider `Cc1c(CCCCC(=O)O)cc(O)c(C=O)c1O`, for which the result (in the data set on Staphylococcus aureus [1]; in the data set with Staphylococcus aureus [2]; in the data set with Bacillus subtilis; in the data set with Saccharomyces cerevisiae [3]; in data set [4]; in the data set with Enterococcus faecalis [5]) was inactive. The outcome in the data set with Enterococcus faecalis [6], in the data set on Enterococcus faecium [7], in the data set on Candida albicans [8], with Enterococcus faecium [9] and in the data set with Escherichia coli was inactive.
As for `Cc1c(CCCCCO)cc(O)c(C=O)c1O`, the result (in the data set with Staphylococcus aureus [1]; in the data set with Staphylococcus aureus [2]; with Bacillus subtilis; with Saccharomyces cerevisiae [3]; in data set [4]; in the data set on Enterococcus faecalis [5]) was inactive. Further, the outcome in the data set on Enterococcus faecalis [6], in the data set with Enterococcus faecium [7], with Candida albicans [8], in the data set with Enterococcus faecium [9] and in the data set on Escherichia coli was inactive.
